Columns and labels:
[1] = pH-dependent cleavage of caged aminophospholipids (MLVs, 1 h, 37° C., phosphate analysis of TLC-separated lipids); format: physicochemical; conditions: for cleavage at any pH: pH 3-8, 1 h, 37° C.; for cleavage at pH 3: after extended incubation at pH 3; for significant cleavage at physiologically desirable pH: pH 5.5-8, 37° C.; for pH of half-maximal cleavage: 1 h at 37° C.
Experimental: Derivatized aminophospholipids (C-DOPS (open circles), C-DOPE (filled circles), M-DOPE (open squares), D-DOPE (filled squares), T-DOPE (open triangles), and P-DOPE (filled triangles), 0.5 mM each) were suspended in citrate (pH 3, 4.5, and 6) or Hepes (pH 7 and 8) buffer and incubated for 1 h at 37° C.
pH-Dependent cleavage measurements. A chloroform solution of the "caged" aminophospholipid (0.1 μmol) being tested was dried under nitrogen and the lipid was resuspended in buffers (200 μL) of varying pH; pH 3 (50 mM citrate), pH 4.5 (50 mM citrate), pH 6 (50 mM citrate), pH 7 (50 mM Hepes), and pH 8 (50 mM Hepes), adjusted to physiological ionic strength (290-310 mOsM) with NaCl. Solutions were vortexed briefly to make multilamellar vesicles (MLVs) and placed in a shaking water bath for 1 h at 37° C. The reaction was quenched after 1 h with a Hepes buffer (0.5M, pH 8.0). The lipid was extracted and the aqueous phase washed twice with chloroform. The derivative was separated from DOPE or DOPS by normal phase silica TLC eluted with CHCl3:CH3OH:NH4OH:H2O (65:25:2.5:2.5). The fraction cleaved was determined by phosphate analysis of the corresponding iodine stained spots. A background measurement, not incubated at 37° C. for 1 h, but subjected to the same extraction and TLC procedures, was performed to correct for hydrolysis that occurred during workup. All measurements were completed in triplicate.
The pH dependence of cleavage of the DOPS and DOPE derivatives was determined by incubating lipid dispersions (MLVs) in buffers of varying pH for 1 h at 37° C. Hydrolysis was measured by phosphate analysis of TLC-separated products.

[2] = system: aminophospholipid transporter, or "flippase"; conditions: cited from earlier work; for inhibition of flippase: Seigneuret & Devaux, 1984, Daleke & Huestis, 1985, Connor & Schroit, 1987, Bitbol et al.
[3] = for time constant tau1 (initial fast component) / time constant tau2 (slow component): biexponential fit; for half-time for cleavage: citrate buffer, pH 5.5
Experimental: The extent of cleavage was determined by phosphate analysis of thin layer chromatographic separations of extracted lipids. The solid lines are non-linear least squares fits of the data to a double exponential equation (f(x)=α1*exp(-x/.tau.1)+α2*exp(-x/.tau.2)).
C-DOPE (0.5 mM, column 1) and C-DOPS (0.5 mM, columns 2-5) were suspended in citrate buffer, pH 5.5 (columns 1 and 2) containing Triton X-100 (0.1%, column 3), NaCl (1M, column 4) or egg PC (2.5 mM, column 5) and incubated for 1 h at 37° C. The extent of cleavage was quantitated by phosphate determination of thin layer chromatographic separations of extracted lipids. Kinetic parameters were determined by non-linear least squares fits of the data to a double exponential equation (see FIG. 2): A. Exponential coefficients α1 (open bars) and α2 (filled bars) B. Time constants .tau.1 (open bars) and .tau.2 (filled bars).
Chloroform solutions of C-DOPS or C-DOPE (0.1 μmol) were dried under nitrogen and resuspended in 200 μL of citrate buffer (50 mM, pH 5.5). MLVs were prepared as described above and placed in a shaking water bath at 37° C. At prescribed time points, the reaction was quenched with 50 μL of Hepes buffer (1M, pH 8.5), the lipid was extracted, and the amount of cleavage was determined by phosphate analysis of TLC-separated lipids.
In one set of experiments, the ionic strength of the citrate incubation buffer (pH 5.5) was raised by including 1M NaCl and cleavage was measured as described above. In a second set of experiments, C-DOPS cleavage was measured in the presence of Triton X-100 (0.1%). In a third set of experiments, a five fold excess of DOPC was add to the lipid suspensions to dilute the surface charge. In a fourth set of experiments, ethanol (0.05-0.5%), DTT (5 mM), aniline (1.5 mM), p-nitroaniline (1.5 mM), and DOPE (2.5 mM) were added in separate experiments to the incubation buffers as scavengers of the anhydride. The lipid products were extracted and isolated by thin-layer chromatography as described previously. A single time point at 2.5 or 3 h was analyzed. All measurements were completed in triplicate and data were fit to a biexponential equation (f(x)=α1*exp(-x/.tau.1)+α2*exp(-x/.tau.2)) using the program MacCurveFit (Kevin Raner, Mt. Waverley, Australia).

human erythrocytes [4] = assay: Back extraction of dilauroyl phospholipids from human erythrocytes with DOPC vesicles; format: cell-based
Experimental: (§1) Timecourse of erythrocyte shape change (MI) induced by suspensions of C-DLPS (200 μM, open circles, open triangles) and DLPC (200 μM, open squares) in HBS. After 15 min (arrow), one sample of cells (open circles) was centrifuged, resuspended in citrate buffer (100 mM, pH 5.5) and re-incubated at 37° C. At 15 or 75 min, aliquots of each sample were removed and treated with DOPC vesicles (20 mM, 5% HCT) for 15 min at 37° C. (closed symbols). At the indicated times aliquots were fixed with glutaraldehyde and analyzed by light microscopy.
Back extraction of dilauroyl phospholipids from human erythrocytes. Washed red blood cells were incubated with DLPS, DLPC, or C-DLPS (200 μM) in HBS at 50% HCT for 90 min at 37° C. After 15 min, an aliquot of the cells was removed and the short chain phospholipids in the outer monolayer were back extracted with sonicated DOPC vesicles (20 mM) in HBS at 5% HCT for 15 min at 37° C. A separate aliquot of C-DLPS-treated cells was removed at 15 min, centrifuged, resuspended in citrate buffer (pH 5.5), and reincubated at 37° C. After 60 min, an aliquot from the cells incubated at low pH was removed and the short chain phospholipids remaining in the outer monolayer were back extracted with DOPC. Two additional control experiments were performed: 1] DLPC (200 μM) was incorporated into cells as described above for 15 min and then back extracted with DOPC vesicles, and 2] cells without exogenously added lipid were incubated with DOPC vesicles under the conditions of the back extraction assay. In each of the forgoing experiments aliquots were removed at the prescribed time points and the morphological index was determined by light microscopy.

human erythrocytes [5] = assay: Erythrocyte shape change (morphological index): incorporation, uncaging and transport of lipid; format: cell-based
Experimental: (§2) A. Timecourse of erythrocyte shape change (morphological index) induced in washed human erythrocytes by C-DOPS liposomes (200 μM) incubated in HBS. At 45 min (arrow), one set of cells was centrifuged, resuspended in citrate buffer (100 mM, pH 5.5) and re-incubated at 37° C. (open circles). Aliquots were fixed with glutaraldehyde and analyzed by light microscopy. B. Low pH-induced cleavage of C-DOP^3 HS in human erythrocytes. Washed human red cells were treated with C-DOP^3 HS (55 nCi) for 45 min at 37° C. in HBS. After centrifugation, the cells were resuspended in citrate buffer (pH 5.5) and reincubated at 37° C. At the indicated timepoints, lipids were extracted from aliquots of cells, C-DOP^3 HS and DOP^3 HS were separated by thin layer chromatography, and radiolabeled lipids were quantitated by scintillation counting.
Washed human erythrocytes were incubated with sonicated suspensions of DLPS (200 μM, open circles, filled circles) or DLPC (200 μM, open squares) in citrate buffer pH 5.5 (open symbols) or in HBS (filled symbols) at 37° C. Aliquots were fixed with glutaraldehyde and analyzed by light microscopy.
as §1
Cells. Human erythrocytes were obtained from healthy adult volunteers by venipuncture and collected into EDTA (3.3 mM final concentration). Erythrocytes were pelleted by centrifugation (5 min, 3000 g), washed three times in Hepes buffered saline (HBS, 118 mM NaCl, 50 mM Hepes, 5 mM KCl, 1 mM MgSO4, 5 mM glucose, pH 8.25), and stored on ice at 50% hematocrit (HCT).
Phosphatidylserine transport assay. Previously washed erythrocytes were pelleted by centrifugation (5 min, 3000 g) and incubated at 50% HCT with sonicated DLPS, DLPC, C-DLPS, or C-DOPS vesicles (200 μM) in HBS according to the method of Daleke and Huestis (1985). At prescribed time points, the cells were fixed by adding 5 μL aliquots to 50 μL of glutaraldehyde (0.5%). Aliquots of fixed cells were examined by light microscopy for changes in cell morphology. Echinocytes were assigned scores of +1 to +5 based on the degree of […], discocytes were scored 0, and stomatocytes were given scores of -1 to -4 based on their degree of […] (Daleke & Huestis, 1989). Echinocytic shapes are indicative of cells with excess lipid in the outer monolayer, while stomatocytic shapes are indicative of cells with excess inner monolayer lipid (Sheetz & Singer, 1974). Thus, cell morphology can be used to measure the movement of exogenously added lipids from the outer to the inner monolayer. The average score of a field of 100 cells is defined as the morphological index (MI).
Hydrolysis of C-DOPS in human erythrocytes. Washed red blood cells were incubated with sonicated C-DOPS vesicles (200 μM) in HBS at 50% HCT for 45 min at 37° C. After 45 min (C-DOPS), the cells were centrifuged (16,000 g, 5 min) and the supernatant was removed. The cells were washed once with a citrate buffer (50 mM, 300 mOsM, pH 5.25) and then incubated at 20% HCT for varying lengths of time in citrate buffer. […] The final pH of the red cell suspensions in HBS was 7.58±0.02 and those suspensions in citrate buffer was 5.72±0.03 pH units. The values were corrected for temperature (37° C.). At the specified time points, an aliquot of cells was fixed and examined by light microscopy.

human erythrocytes [6] = assay: Cleavage of C-DOP^3 HS in intact human erythrocytes (TLC, scintillation counting); format: cell-based; conditions: citrate buffer pH 5.5, 37° C.
Experimental: as §2
Hydrolysis of C-DOPS in human erythrocytes. […]
Uncaging of the C-DOPS derivative was measured in human red blood cells in order to test the feasibility of using the compound as a probe of aminophospholipid transport in biological membranes. […] Cleavage of C-DOP^3 HS was measured directly in intact erythrocytes. […] Following exchange with citrate buffer (pH 5.5), the cells were incubated at 37° C. and hydrolysis was measured by analysis of extracted lipids separated by thin layer chromatography.

[7] = pH 5.5
Experimental: In a fourth set of experiments, ethanol (0.05-0.5%), DTT (5 mM), aniline (1.5 mM), p-nitroaniline (1.5 mM), and DOPE (2.5 mM) were added in separate experiments to the incubation buffers as scavengers of the anhydride. The lipid products were extracted and isolated by thin-layer chromatography as described previously. A single time point at 2.5 or 3 h was analyzed. All measurements were completed in triplicate and data were fit to a biexponential equation (f(x)=α1*exp(-x/.tau.1)+α2*exp(-x/.tau.2)) using the program MacCurveFit (Kevin Raner, Mt. Waverley, Australia).
This hypothesis was tested by using nucleophilic scavengers to trap the released anhydride. Both water soluble (dithiothreitol, ethanol) and lipophilic (aniline, p-nitroaniline, and DOPE) scavengers were added to C-DOPS solutions and cleavage was measured at a timepoint when the slow rate of cleavage predominated (Table II).

[8] = after incorporation in HBS (15 min)
[9] = 200 μM, citrate buffer (pH 5.5), 37° C.

N-3,4,5,6-tetrahydrophthalyl-phosphatidylethanolamine [T-DOPE]
cleavage at any pH [1]: not cleaved to any appreciable extent

CCCCCCCC/C=C\CCCCCCCC(=O)OCC(COP(=O)(O)OCCNC(=O)c1ccccc1C(=O)O)OC(=O)CCCCCCC/C=C\CCCCCCCC (stereo not drawn) [P-DOPE, N-phthalyl-dioleoylphosphatidylethanolamine]
cleavage at pH 3 [1]: 25% | significant cleavage at physiologically desirable pH [1]: did not occur

phosphatidylserine [PS]
affinity of flippase relative to PE ([2]; PS versus PE, Zachowski et al., 1986): approximately ten-fold

CCCCCCCC/C=C\CCCCCCCC(=O)OC[C@H](COP(=O)(O)OCCNC(=O)/C(C)=C\C(=O)O)OC(=O)CCCCCCC/C=C\CCCCCCCC [C-DOPE, N-citraconyl-dioleoylphosphatidylethanolamine]
time constant tau1 (initial fast component) ([3]; citrate buffer pH 5.5, 37° C.): 0.9 h | time constant tau2 (slow component) ([3]; citrate buffer pH 5.5, 37° C.): 7 h | half-time for cleavage [3]: 110 min | pH of half-maximal cleavage [1]: 5.5 pH

CCCCCCCCCCCC(=O)OCC(COP(=O)([O-])OCC[N+](C)(C)C)OC(=O)CCCCCCCCCCC (stereo not drawn) [DLPC, dilauroylphosphatidylcholine]
cell shape after back extraction with DOPC vesicles (human erythrocytes [4]; [8]): identical results | time echinocytic shape is retained (human erythrocytes [5]; [9]): more than 1.5 h | time to become echinocytic (human erythrocytes [5]; [9]): ≤ 2 min | shape changes at higher pH compared with pH 5.5 (human erythrocytes [5]; higher pH, data not shown): similar

citraconyl-dioleoylphosphatidyl-[3-^3 H]serine [C-DOP^3 HS]
cleavage in erythrocytes compared with model membranes (human erythrocytes [6]): followed a similar timecourse and extent in erythrocytes as in model membranes

CCCCCCCC/C=C\CCCCCCCC(=O)OC[C@H](COP(=O)(O)OCCNC(=O)/C(C)=C(/C)C(=O)O)OC(=O)CCCCCCC/C=C\CCCCCCCC [D-DOPE, N-dimethylmaleyl-dioleoylphosphatidylethanolamine]
cleavage at any pH [1]: not cleaved to any appreciable extent

CCCCCCCCCCCC(=O)OCC(COP(=O)(O)OCC(N)C(=O)O)OC(=O)CCCCCCCCCCC (stereo not drawn) [DLPS, dilauroylphosphatidylserine]
erythrocyte shape change (human erythrocytes [5]; 200 μM, HBS, 37° C.): became echinocytic initially but rapidly reverted to stomatocytes | erythrocyte shape change (human erythrocytes [5]; [9]): became echinocytic initially but rapidly reverted to stomatocytes

CCCCCCCC/C=C\CCCCCCCC(=O)OCC(COP(=O)(O)OCCNC(=O)/C=C\C(=O)O)OC(=O)CCCCCCC/C=C\CCCCCCCC (stereo not drawn) [M-DOPE, N-maleyl-dioleoylphosphatidylethanolamine]
cleavage at pH 3 [1]: 25% | significant cleavage at physiologically desirable pH [1]: did not occur

[O]=[V]([O-])([O-])[O-] [vanadate]
inhibition of flippase [2]: inhibited

CCCCCCCC/C=C\CCCCCCCC(=O)OC[C@H](COP(=O)(O)OC[C@H](NC(=O)/C(C)=C\C(=O)O)C(=O)O)OC(=O)CCCCCCC/C=C\CCCCCCCC [C-DOPS, N-citraconyl-dioleoylphosphatidylserine]
% cleavage - scavenger ([7]; citrate buffer, 2.5 h): 55.2% | effect of scavengers on slower second rate ([7]; dithiothreitol, ethanol, aniline, p-nitroaniline, DOPE): None of these scavengers attenuated the slower second rate | time cells remain echinocytic (human erythrocytes [5]; HBS, 37° C., 200 μM): more than 1.5 h | cell shape after exchange of buffer to low pH (human erythrocytes [5]; Hepes buffer exchanged for citrate buffer (pH 5.5)): reverted to a more discoid shape | initial cleavage rate relative to C-DOPE ([3]; citrate buffer pH 5.5, 37° C.): 6 fold | time constant tau1 (initial fast component) ([3]; citrate buffer pH 5.5, 37° C.): 0.15 h | time constant tau2 (slow component) ([3]; citrate buffer pH 5.5, 37° C.): 4.8 h | half-time for cleavage [3]: 85 min | pH of half-maximal cleavage [1]: 6.5 pH

[Ca+2] [calcium]
inhibition of flippase [2]: inhibited

CCCCCCCCCCCC(=O)OC[C@H](COP(=O)(O)OC[C@H](NC(=O)C(C)=CC(=O)O)C(=O)O)OC(=O)CCCCCCCCCCC [C-DLPS, N-citraconyl-dilauroylphosphatidylserine]
cell shape after back extraction with DOPC vesicles (human erythrocytes [4]; 15 min in HBS, then low pH for additional 60 min): reverted to stomatocytes | transbilayer location of lipid (human erythrocytes [4]; HBS): remains in the outer monolayer | cell shape after back extraction with DOPC vesicles (human erythrocytes [4]; [8]): reverted to discocytes | transbilayer location of lipid (portion) (human erythrocytes [4]; citrate buffer (low pH)): accumulates in the inner monolayer

Reference: patent publication US5767298A, “Aminophospholipid compositions and uses thereof” (Indiana University Foundation, priority 1996, dated 1998)
